According to patent US7608392B2, “Diagnostic assay for measuring a cell mediated immune response” (priority 2002, dated 2009):
Where “and” joins values, the source holds several entries; their conditions need not be identical. Equal entries are not always repeated.

Columns and labels:
Format in all cases: cell-based, human
[1] = system: whole blood; experiment: Whole blood IFN-γ response to antigen with or without dextrose, 24-well plate, Quantiferon-TB ELISA (Example 2)
[2] = system: whole blood; experiment: Whole blood IFN-γ response to HuPPD or Mitogen, 24-well plate versus blood collection tube, Quantiferon-TB ELISA (Example 4)
[3] = system: whole blood; conditions: blood collection tube, dextrose added; one line per subject; * OD outside the range of the plate reader
[4] = system: whole blood

Substance | Concentration of IFN-γ found for each plasma sample, +Dextrose ([1]; 24-well plate, 20 hours 37° C., dextrose 2 mg/mL, one line per donor) | Concentration of IFN-γ found for each plasma sample, −Dextrose ([1]; 24-well plate, 20 hours 37° C., without dextrose, one line per donor) | Fold increase with dextrose ([1]; IFN-γ +Dextrose 2 mg/mL / −Dextrose, one line per donor) | Change in IFN-γ detected with addition of dextrose (in words) ([1]; dextrose 2 mg/mL, 24-well plate) | Amount of IFN-γ detected, Mitogen 24-well ([2]; after subtraction of saline negative control, 24-well plate, one line per donor) | Amount of IFN-γ detected, Mitogen Tube ([2]; after subtraction of saline negative control, blood collection tube, mean of duplicate tubes, one line per donor) | Mean fold increase, Mitogen Tube/24-well ([2]; mean over donors) | Mitogen Tube/24-well ([2]; ratio of IFN-γ, one line per donor) | IFN-γ, In-Tube Method, Mitogen [3] | Mean fold increase, TetTox Tube/24 well [4]
phytohemagglutinin [Mitogen] | 122.76 IU/mL and 25.71 IU/mL | 108.72 IU/mL and 28.67 IU/mL | 0.90 and 1.13 | slight increase in IFN-γ detected for one of the donors and a slight decrease for the other | 83.34 IU/mL and 1.13 IU/mL and 10.04 IU/mL and 6.85 IU/mL and 12.32 IU/mL and 8.77 IU/mL and 76.98 IU/mL and 65.02 IU/mL and 8.14 IU/mL and −0.56 IU/mL and 21.79 IU/mL and 30.58 IU/mL and 28.26 IU/mL and 8.10 IU/mL and 2.75 IU/mL and 6.14 IU/mL and 14.05 IU/mL and 2.46 IU/mL and 11.80 IU/mL and 7.69 IU/mL | 61.94 IU/mL and 13.13 IU/mL and 7.95 IU/mL and 3.45 IU/mL and 13.32 IU/mL and 5.29 IU/mL and 68.58 IU/mL and 47.53 IU/mL and 5.80 IU/mL and −0.79 IU/mL and 16.34 IU/mL and 22.52 IU/mL and 19.16 IU/mL and 5.71 IU/mL and 1.88 IU/mL and 3.55 IU/mL and 9.07 IU/mL and 7.91 IU/mL and 8.73 IU/mL and 3.52 IU/mL | 0.73 | 0.74 (3×) and 0.79 and 0.05 and 1.08 and 0.60 and 0.89 and 0.73 and 0.71 (2×) and 0.75 and 0.68 and 0.58 and 0.65 and 3.22 and 0.46 | 52.50 IU/mL and 4.15 IU/mL and 17.377* IU/mL and 5.57 IU/mL and 2.31 IU/mL and 11.77 IU/mL and 21.063* IU/mL and 4.02 IU/mL and 11.23 IU/mL and 17.05* IU/mL | 
tetanus toxoid |  |  |  |  |  |  |  |  |  | 4.5 and 4.51
